# According to patent US6537593B2, “Plant phenol as new hepatoprotective agents” (Council of Scientific and Industrial Research, priority 2000, dated 2003):
# Experiments:
# [1] = tested on: HIV; settings: cited from earlier work
# [2] = tested on: Male wistar rats; test: Carbon tetrachloride induced hepatotoxicity in rats (serum AST and ALT); assay type: in vivo, rat; settings: for Protection against CCl4 induced toxicity: orally, rats
# Protocol: Carbon tetrachloride is a classical method to induce free radical mediated hepatotoxicity. In order to evaluate the free radical mediated hepatotoxicity and heptoprotective properties in the compound (−)-wikstromol, this method was employed. Male wistar rats were selected for study. The compound was dissolved in a small amount of DMSO and reconstituted in gum acacia/water. The compound was given one hour before CCl4 administration to the over-night fasted rats in a dose of 250 mg/kg-body weight, orally. After one hour, a mixture of CCl4 and liquid paraffin (1:1, v/v) in the dose of 2.5 ml/kg was given orally. Fasting was continued. However, water was provided ad-libitum. After 5 hrs of CCl4 administration, blood was taken out from the retroorbital plexus. Serum aspartase transaminase and serum alanine transaminase was measured as a marker of hepatotoxicity.
# Carbon tetrachloride induced toxicity was repeated as referred in the example 2 by changing the dosage level to 300 mg/kg-body weight, orally. Fasting was continued. However, water was provided ad-libitum. After 5hrs of CCl4 administration, blood was taken out from the retroorbital plexus. Serum aspartase transaminase and serum alanine transaminase was measured as a marker of hepatotoxicity.
# [3] = tested on: p-388 lymphocyte leukemia; settings: cited from earlier work
# [4] = serum, 5 hours after CCl4 administration, compound 250 mg/kg orally one hour before CCl4 2.5 ml/kg, mean ± SD
compound,measurement,setting,value
"COc1cc(C[C@@H]2COC(=O)[C@@]2(O)Cc2ccc(O)c(OC)c2)ccc1O [(−)-wikstromol, 4,4^1,8-trihydroxy-3,3^1-dimethoxyliganan-9,9^1-olide]",Anti-HIV activity,[1],anti-HIV activity
same,Protection against CCl4 induced toxicity,[2]; 250 mg/kg-body weight,significantly prevented CCl4 induced toxicity
same,Protection against CCl4 induced toxicity,[2]; 300 mg/kg-body weight,shows significant activity and prevented CCl4 induced toxicity
same,Hepatoprotective effectiveness,[2]; dosage of 250 to 300 mg/kg of body weight,highly effective
same,ALT (U/L) Before,"[2]; serum alanine transaminase before oral administration of compound and CCl4, mean ± SD, 250 mg/kg group",42 ± 7 U/L
same,AST (U/L) Before,"[2]; serum aspartate transaminase before oral administration of compound and CCl4, mean ± SD, 250 mg/kg group",281 ± 91 U/L
same,ALT (U/L) After,[2]; [4],188 ± 66 U/L
same,AST (U/L) After,[2]; [4],557 ± 126 U/L
same,Activity against p-388 lymphocyte leukemia,[3],active
